According to US20260335398A1, “METHODS FOR TREATING PANCREATIC CANCER WITH A COMBINATION OF DES-METHYL PATEAMINE A AND A CLASS I HDAC INHIBITOR” (Baylor University, priority 2023, published 2026):

Legend:
Type in all cases: cell-based
[1] = test system: PANC-1, PANC 02.13, MIA PaCa-2, Capan-1, KLM, AsPC-1 and BXPC3 cells; assay: Cytotoxicity/cell viability with romidepsin, DMPatA and their combination in seven PDAC cell lines (FIG. 1A); conditions: romidepsin 15 nM for 6 h, alone or with DMPatA 2 nM
Description: FIG. 1A compares cytotoxicity graphs of the effect of romidepsin alone at increasing doses (circles), DMPatA alone at 2 nM (diamond), and combination of romidepsin with DMPatA at 2 nM (triangles) on PANC-1, PANC 02.13, MIA PaCa-2, Capan-1, KLM, AsPC-1 and BXPC3 cells. Romidepsin treatment in both the single agent and the combination was for 6 hours after which it was washed out and medium replaced with fresh medium without (single agent romidepsin) or with DMPatA for an additional 42 hours (combination).
This schedule of romidepsin treatment features a 6-hour exposure followed by washout of romidepsin and replacement with fresh media, whereas most investigators expose cells to 1-2 nM over 48-96 hours of continuous romidepsin. […] Thus a 6-hour exposure is more clinically relevant. Most cell types are susceptible to romidepsin over non-clinically relevant long treatment durations.
It was initially hypothesized that the HDAC-inhibitor romidepsin could cause synergistic cell death when combined with DMPatA via a reduction in MYC levels previously seen with both eIF4A inhibitors and with romidepsin in KRAS cells. […]
Cell viability was determined using CellTiter-Glo® reagent (Promega, #G7570) following the manufacturer's instructions. […] After incubation, assay reagent was added, and luminescent signals were quantified using a microplate reader (PHERAstar® FS, BMG LABTECH, Ortenberg, Germany). […]

VGF and HBA2 loci = assay: DRIP-qPCR R-loop accumulation at VGF and HBA2 loci (FIG. 10A); conditions: MIA PaCa-2, 6+3 hours
Description: FIG. 10A illustrates the fold increase in the percent of input values in DRIP-qPCR for the VGF, HBA2, and SNRPN loci in MIA PaCa-2 cells treated with or without the combination or single agents. Genomic DNA was treated in vitro with or without RNaseH1 before immunoprecipitation using S9.6 antibody. Treatment was for 6+3 hours (i.e., 6-hour romidepsin followed by 3-hour washout with 2 nM DMPatA (combo) or without). Statistical significance was determined by 3-way ANOVA, ***p value<0.001. This experiment confirms the formation of R-loops at the investigated gene loci.
Romidepsin-induced histone hyperacetylation leads to the accumulation of R-loops that can increase genome instability. Because treatment of cells with the combination increased global transcription and led to persistence of histone hyperacetylation, it was postulated the treatment could similarly enhance the formation of R-loops and contribute to cell death. R-loop accumulation was further confirmed using DRIP-qPCR. […]
DRIP assay was performed according to the method previously described (Sanz L A, Chédin F. High-resolution, strand-specific R-loop mapping via S9. 6-based DNA-RNA immunoprecipitation and high-throughput sequencing. Nature protocols. 2019; 14(6):1734). […] Quantitative PCR was performed at the R-loop positive loci VGF and HBA2 genes and R-loop negative locus SNRPN gene with the primers listed in Table 1.

MIA PaCa-2 and KLM cells = assay: RNA-seq gene expression analysis (FIG. 9A)
Description: Plots show a significant increase in the overall gene expression in the cells treated with the combination. Cells treated for a total of 18 h (i.e., 6-hour romidepsin followed by 12-hour incubation with 2 nM DMPatA (combo) or without (Romi alone)).
To gain further insight into the effects of the combination treatment gene expression was profiled in MIA PaCa-2 and KLM cells treated with vehicle, the single agents, or the combination for a total of 18 h (i.e., 6-hour romidepsin treatment followed by 12-hour washout with 2 nM DMPatA or without), probing whether alterations observed following combination treatment could be explained by changes in gene expression.
Total RNA was extracted using RNeasy mini kit (Qiagen) from cells collected after 18 hours (6 hours romidepsin (15 nM)+12 hours washout with or without DMPatA (2 nM)) incubation with or without drugs. RNA quantitation and quality were assessed by the Agilent Bioanalyzer 2100 at the Molecular Pathology Shared Resource of the Herbert Irving Comprehensive Cancer Center at Columbia University (mBank). RNA library preparation and sequencing was performed at Columbia University's Sulzberger Genome Center. Briefly, poly-A pull-down was used to enrich mRNAs from total RNA samples, followed by library construction using Illumina TruSeq chemistry. Libraries were then sequenced using Illumina NovaSeq 6000. For the DESeq2 (v 1.40.2) analysis the data were imported with tximport in DESeq2 and a dds object was generated. Variance stabilizing transformation was used on the object and the output was used for the heatmap and PCA plots. Abundance of transcripts was estimated by pseudoalignment using kallisto, and downstream analysis was performed using R (v4.3.1) and the indicated packages. […] Differentially expressed genes were determined using linear regression method (limma v3.56.2), and genes with |log 2FC|≥1 and adjusted p-value <0.05 were plotted accordingly on volcano plots and heatmap (ggplot2 v3.5.0 and ComplexHeatmap v2.16.0). […]

C/C=C1\NC(=O)[C@H]2CSSCC/C=C/[C@H](CC(=O)N[C@H](C(C)C)C(=O)N2)OC(=O)[C@H](C(C)C)NC1=O [romidepsin]
toxicity / lethality at low concentration [1]: minimal to no toxicity
R-loop accumulation (percent of input, DRIP-qPCR) (VGF and HBA2 loci): significant increase in the percent of input
change in gene expression (MIA PaCa-2 and KLM cells; romidepsin 15 nM 6 h, with or without DMPatA 2 nM): only a modest increase in gene expression
number of differentially expressed genes (DEGs) (MIA PaCa-2 and KLM cells; total 18 h (6 h romidepsin 15 nM + 12 h with/without DMPatA 2 nM), |log2FC|≥1, adjusted p<0.05): 1551 DEGs
